Experimental data reported in PMC8237569 (Proceedings of the National Academy of Sciences of the …, 2021).
In brackets after ≈: the same amount, converted by molar mass.

Columns and labels:
[1] = system: TA-C–resistant M. tuberculosis strains (fbiC, fgd1 mutants); type: cell-based
[2] = system: NC1=NC2(CCCCC2)N(c2ccc(OCc3cn(CCCCOc4ccc5ccc(=O)oc5c4)nn3)cc2)C(N)=N1; experiment: purified protein, by the assay type; settings: pH 7.5

Compound	MIC50 [1] [µM]	other results
CO[C@H]1/C=C/O[C@@]2(C)Oc3c(C)c(O)c4c(O)c(c(/C=N/N5CCN(C)CC5)c(O)c4c3C2=O)NC(=O)/C(C)=C\C=C\[C@H](C)[C@H](O)[C@@H](C)[C@@H](O)[C@@H](C)[C@H](OC(C)=O)[C@@H]1C [RIF, rifampicin]	–	MIC50, RIF [1]: 0.0016 µM (≈ 0.00132 µg/mL)
Nc1ccc(C(=O)O)c(O)c1 [PAS, para-aminosalicylic acid]	0.2 (≈ 0.0306 µg/mL)	–
O=[N+]([O-])c1cn2c(n1)OC[C@@H](OCc1ccc(OC(F)(F)F)cc1)C2 [PTM, pretomanid]	>100	–
NNC(=O)c1ccncc1 [INH, isoniazid]	0.4 (≈ 0.0549 µg/mL)	–
Rv1558 (Mycobacterium tuberculosis H37Rv)	–	Km [2]: 10.01 ± 1.6 µM
